Assay results published in publication PMC6600512, “Interactions between β-Lactoglobulin and 3,3′-Diindolylmethane in Model System” (Molecules, 2019).

Molecular target: T1, β-Lactoglobulin (β-LG) (Bos taurus, UniProt P02754)
T1 construct: gene LGB
T1 sequence (P02754 17-178): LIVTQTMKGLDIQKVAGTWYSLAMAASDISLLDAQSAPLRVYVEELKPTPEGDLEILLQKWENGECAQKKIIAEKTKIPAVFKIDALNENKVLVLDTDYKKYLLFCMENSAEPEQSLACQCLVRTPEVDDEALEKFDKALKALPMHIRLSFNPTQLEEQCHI
Assay: intrinsic fluorescence enhancement titration (binding constant from […]/ΔF vs […]/Cq); supported by CD, FT-IR, UV, DLS and zeta potential
Settings: read-out: intrinsic fluorescence enhancement titration (binding constant from 1/ΔF vs 1/Cq) (converted)

Kd: 1490 nM
Structure (SMILES): c1ccc2c(Cc3c[nH]c4ccccc34)c[nH]c2c1 [DIM, 3,3′-diindolylmethane]
